Source: publication PMC8745330, “Aromatic Sulfonamides including a Sulfonic Acid Tail: New Membrane Impermeant Carbonic Anhydrase Inhibitors for Targeting Selectively the Cancer-Associated Isoforms” (International Journal of Molecular Sciences, 2021)
Counter-ions that a name gives are not always drawn.

Legend:
[1] = Caco-2 cell viability by MTS; assay type: cell-based; settings: human; Caco-2 cells, 50 μM, 2 h of exposure, MTS; data not shown
Experimental: The colorectal adenocarcinoma cell line Caco-2 was purchased from American Tissue Type Culture Collection (Manassas, VA, USA) and cultured in Dulbecco’s modified Eagle’s medium (DMEM) (Thermo Fisher Scientific, Rodano, Milan, Italy) with 20% fetal bovine serum (FBS) (Thermo Fisher Scientific, Rodano, Milan, Italy) and 100 U/mL penicillin–streptomycin (Thermo Fisher Scientific, Rodano, Milan, Italy) in 5% CO2 at 37 °C. Cell viability was determined by MTS after 2 h of exposure to the aliphatic sulfonate CAIs at 50 µM concentration, as previously described.

hCA I = molecular target: T1, hCA I (Homo sapiens, UniProt P00915); test: stopped flow CO2 hydrase assay, CA I; assay type: biochemical; settings: mean from 3 different assays, errors ±5–10%
T1 construct: made in house
T1 sequence (P00915 whole entry): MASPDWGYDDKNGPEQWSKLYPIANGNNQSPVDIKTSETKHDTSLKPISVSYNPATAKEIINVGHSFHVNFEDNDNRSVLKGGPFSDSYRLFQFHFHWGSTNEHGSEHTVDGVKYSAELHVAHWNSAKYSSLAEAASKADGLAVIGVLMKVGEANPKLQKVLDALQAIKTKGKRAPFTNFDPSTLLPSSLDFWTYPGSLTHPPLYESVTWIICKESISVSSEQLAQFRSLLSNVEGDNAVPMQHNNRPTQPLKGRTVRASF
Experimental: (§1) An Applied Photophysics stopped-flow instrument was used for assaying the CA catalyzed CO2 hydration activity. Phenol red (at a concentration of 0.2 mM) was used as an indicator, working at the absorbance maximum of 557 nm, with 20 mM HEPES (pH 7.5) as buffer, and 20 mM Na2SO4 (for maintaining constant the ionic strength), following the initial rates of the CA-catalyzed CO2 hydration reaction for a period of 10–100 s. The CO2 concentrations ranged from 1.7 to 17 mM for the determination of the kinetic parameters and inhibition constants. For each inhibitor, at least six traces of the initial 5–10% of the reaction were used for determining the initial velocity. The uncatalyzed rates were determined in the same manner and subtracted from the total observed rates. Stock solutions of inhibitor (0.1 mM) were prepared in distilled–deionized water, and dilutions up to 0.01 nM were done thereafter with the assay buffer. Inhibitor and enzyme solutions were preincubated together for 45 min at room temperature prior to assay in order to allow for the formation of the E–I complex. The inhibition constants were obtained by non-linear least-squares methods using PRISM 3 and the Cheng–Prusoff equation, as reported earlier, representing the mean from at least three different determinations. […] All CA isoforms were recombinant ones obtained in-house, as reported earlier.

hCA II = molecular target: T2, hCA II (Homo sapiens, UniProt P00918); test: stopped flow CO2 hydrase assay, CA II; assay type: biochemical; settings: mean from 3 different assays, errors ±5–10%
T2 construct: made in house
Experimental: as §1

hCA IX = molecular target: T3, hCA IX (Homo sapiens, UniProt Q16790); test: stopped flow CO2 hydrase assay, CA IX; assay type: biochemical; settings: for Selectivity index (SI) CA I/CA IX / Selectivity index (SI) CA II/CA IX: ratio between KI values; for Ki: stopped flow CO2 hydrase assay, mean from 3 different assays, errors ±5–10%
T3 construct: made in house
Experimental: as §1

hCA XII = molecular target: T4, hCA XII (Homo sapiens, UniProt O43570); test: stopped flow CO2 hydrase assay, CA XII; assay type: biochemical; settings: for Selectivity index (SI) CA I/CA XII / Selectivity index (SI) CA II/CA XII: ratio between KI values; for Ki: stopped flow CO2 hydrase assay, mean from 3 different assays, errors ±5–10%
T4 construct: made in house
T4 sequence (O43570 25-354): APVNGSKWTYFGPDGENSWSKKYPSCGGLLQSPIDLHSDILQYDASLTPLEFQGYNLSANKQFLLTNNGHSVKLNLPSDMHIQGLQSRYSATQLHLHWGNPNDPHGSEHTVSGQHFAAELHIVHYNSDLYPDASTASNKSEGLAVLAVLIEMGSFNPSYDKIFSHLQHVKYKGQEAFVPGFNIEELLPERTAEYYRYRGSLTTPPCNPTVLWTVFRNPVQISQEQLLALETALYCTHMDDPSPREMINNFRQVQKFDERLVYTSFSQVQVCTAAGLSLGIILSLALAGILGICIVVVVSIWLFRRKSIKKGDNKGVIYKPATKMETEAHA
Experimental: as §1

hCA IV = molecular target: T5, hCA IV (Homo sapiens, UniProt P22748); test: stopped flow CO2 hydrase assay, CA IV; assay type: biochemical; settings: mean from 3 different assays, errors ±5–10%
T5 construct: made in house
T5 sequence (P22748 19-312): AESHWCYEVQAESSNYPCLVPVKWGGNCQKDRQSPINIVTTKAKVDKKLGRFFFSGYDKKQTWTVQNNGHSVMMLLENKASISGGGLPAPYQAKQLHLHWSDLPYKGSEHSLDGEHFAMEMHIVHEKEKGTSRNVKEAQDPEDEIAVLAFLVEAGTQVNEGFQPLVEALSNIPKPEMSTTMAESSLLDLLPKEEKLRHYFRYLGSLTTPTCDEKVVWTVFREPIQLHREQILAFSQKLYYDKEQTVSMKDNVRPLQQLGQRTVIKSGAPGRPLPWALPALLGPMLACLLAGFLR
Experimental: as §1

Row | Compound | melting point [°C] | Ki (hCA I) [nM] | Ki (hCA II) [nM] | Selectivity index (SI) CA I/CA IX (hCA IX) | Selectivity index (SI) CA II/CA IX (hCA IX) | Ki (hCA IX) [nM] | Selectivity index (SI) CA I/CA XII (hCA XII) | Selectivity index (SI) CA II/CA XII (hCA XII) | Ki (hCA XII) [nM] | Ki (hCA IV) [nM] | viability at 2 h, 50 µM [1] [%]
1 | NS(=O)(=O)c1ccc(NC(=O)Nc2ccc(OCc3cn(CCCS(=O)(=O)[O-])nn3)cc2)cc1.[Na+] [Compound 38, Sodium 3-(4-((4-(3-(4-sulfamoylphenyl)ureido)phenoxy)methyl)-1H-1,2,3-triazol-1-yl)propane-1-sulfonate] | > 300 | 51.6 | 5.4 | 0.95 | 0.10 | 54.4 | 1.1 | 0.11 | 49 | 36.7 | > 95
2 | NS(=O)(=O)c1ccc(NC(=S)NCc2cn(CCCS(=O)(=O)[O-])nn2)cc1.[Na+] [Compound 37, Sodium 3-(4-((3-(4-sulfamoylphenyl)thioureido)methyl)-1H-1,2,3-triazol-1-yl)propane-1-sulfonate] | 230 to 232 | 79.9 | 21.4 |  | 0.42 | 51.2 | 8.5 | 2.2 | 9.4 | 78.1 | 
3 | CC(=O)Nc1cc(S(N)(=O)=O)ccc1OCc1cn(CCCS(=O)(=O)[O-])nn1.[Na+] [Compound 39, Sodium 3-(4-((2-acetamido-4-sulfamoylphenoxy)methyl)-1H-1,2,3-triazol-1-yl)propane-1-sulfonate] | > 300 | > 10000 | 63.4 | >41 | 0.26 | 242 | >534 | 3.4 | 18.7 | 244 | > 95
4 | C#CCNC(=S)Nc1ccc(S(N)(=O)=O)cc1 [Compound 29] | 235 to 238 |  |  |  |  |  |  |  |  |  | 
5 | CCC(=O)Nc1cc(S(N)(=O)=O)ccc1OCc1cn(CCCS(=O)(=O)[O-])nn1.[Na+] [Compound 40, Sodium 3-(4-((2-propionamido-4-sulfamoylphenoxy)methyl)-1H-1,2,3-triazol-1-yl)propane-1-sulfonate] | > 300 | 9160 | 6.6 | 167 | 0.12 | 54.8 | 194 | 0.14 | 47.1 | 322 | 

Further lines, with some results ahead:

Row | melting point [°C] | Ki (hCA I) [nM] | Ki (hCA II) [nM] | Selectivity index (SI) CA I/CA IX (hCA IX) | Selectivity index (SI) CA II/CA IX (hCA IX) | Ki (hCA IX) [nM] | Selectivity index (SI) CA I/CA XII (hCA XII) | Selectivity index (SI) CA II/CA XII (hCA XII) | Ki (hCA XII) [nM] | Ki (hCA IV) [nM] | Compound | viability at 2 h, 50 µM [1] [%]
6 | > 300 |  |  |  |  |  |  |  |  |  | CC(=O)Nc1cc(S(N)(=O)=O)ccc1OCc1cn(CCCCS(=O)(=O)O)nn1 (as salt: sodium) [Compound 50] | 
7 |  | 82.3 | 41.3 |  |  | 68.1 |  |  | 64 | 473 | Sodium 3-(4-((3-(4-sulfamoylphenethyl)ureido)methyl)-1H-1,2,3-triazol-1-yl)butane-1-sulfonate [Compound 47] | 
8 |  | 651 | 332 |  |  | 133 |  |  | 31.3 | 636 | Sodium 3-(4-((3-(4-sulfamoylbenzyl)ureido)methyl)-1H-1,2,3-triazol-1-yl)butane-1-sulfonate [Compound 46] | 
9 |  | 96.8 | 29.5 | 1.6 | 0.49 | 60.2 | 4.1 | 1.2 | 23.1 | 750 | Sodium 3-(4-((4-sulfamoylphenoxy)methyl)-1H-1,2,3-triazol-1-yl)butane-1-sulfonate [Compound 42] | 
10 |  | 62.4 | 5.8 |  |  | 8.8 |  |  | 31.5 | 557 | Sodium 3-(4-((3-(4-sulfamoylphenyl)thioureido)methyl)-1H-1,2,3-triazol-1-yl)butane-1-sulfonate [Compound 48] | 
